Experimental data taken from patent US20240082279A1, “COMPOSITIONS AND METHODS FOR PREVENTING AND/OR TREATING SCARS” (L'Oreal, priority 2022, published 2024).

Key:
Format in all cases: cell-based, human
Ki67 = Ki67 immunofluorescence staining in laser wounded reconstructed skin; details: 3% in 3% propylene glycol, Day 2 SoftSkin™ after CO2 laser, vs laser alone, laser+vehicle and untreated control, FIG. 6
Method: (§1) Surgical skin samples were be taken from adults and subjected to the 0.25% trypsin dermis/epidermis separation method described in Rheinwald to obtain suspensions of normal human keratinocytes (NHK) and dermal fibroblasts. See Rheinwald J. G., Green H.: Serial cultivation of strains of human epidermal keratinocytes: The formation of keratinizing colonies from single cells. Cell. 6(3):331-43. 1975. The separated normal human dermal fibroblasts were cultured in DMEM+10% fetal calf serum. The fibroblasts were cast onto a lower layer of proto-SoftSkin™ gel. A full-thickness dermal layer equivalent was obtained after contraction of a mixture of Collagen Type I and human normal fibroblasts. The separated normal human keratinocyte cell cultures were initiated using the 3T3 feeder-layer technique described in Rheinwald J. G., Green H.: Epidermal growth factor and the multiplication of cultured human epidermal keratinocytes. Nature 265:421-424 (1977). The separated normal human keratinocytes were seeded on a lattice on the top layer of a proto-SoftSkin™ gel and the culture was left for 7 days in submerged conditions at 37° C. in the presence of 5% carbon dioxide in MEM containing 10% fetal calf serum, allowing the cells to proliferate and form an epidermal layer. Then, the culture was raised upwards to air-liquid interface for an additional 7 days to grow reconstructed skin models (SoftSkin™). […]

α-SMA = α-SMA ELISA of lysed reconstructed skin tissue; details: 3% in 3% propylene glycol, Day 2 SoftSkin™ after CO2 laser, vs laser treated tissues not further treated, FIG. 8
Method: Surgical skin samples were be taken from adults and subjected to the 0.25% trypsin dermis/epidermis separation method described in Rheinwald to obtain suspensions of normal human keratinocytes (NHK) and dermal fibroblasts. See Rheinwald J. G., Green H.: Serial cultivation of strains of human epidermal keratinocytes: The formation of keratinizing colonies from single cells. Cell. 6(3):331-43. 1975. The separated normal human dermal fibroblasts were cultured in DMEM+10% fetal calf serum. The fibroblasts were cast onto a lower layer of proto-SoftSkin™ gel. A full-thickness dermal layer equivalent was obtained after contraction of a mixture of Collagen Type I and human normal fibroblasts. […]
Punched Day 2 normal human tissue cultures tissues were submerged with Tissue Lysis Buffer (R&D Systems) and cryogenically ground 3 times, and further lysed on ice for 30 minutes. […] Aliquots of the supernatant were removed and stored at −80° C. until assayed. α-SMA concentration in ECM was determined using a BCA protein array kit (Absin, abs9232-500) and normalized before ELISA assay (alpha SMA Human ELISA Kit #Abcam, ab240678). […]
(§2) Each experiment in Examples 2-5 was replicated three times. For immunostaining study, one cryosection per replicate and 4 fluorescence images/section were taken for data analysis. […]

DKK-1 = DKK-1 secretion, Luminex Assay of medium supernatant from reconstructed skin; details: 3% in 3% propylene glycol, day 1 SoftSkin™ after CO2 laser, vs laser alone, laser+vehicle, untreated control
Method: Surgical skin samples were be taken from adults and subjected to the 0.25% trypsin dermis/epidermis separation method described in Rheinwald to obtain suspensions of normal human keratinocytes (NHK) and dermal fibroblasts. See Rheinwald J. G., Green H.: Serial cultivation of strains of human epidermal keratinocytes: The formation of keratinizing colonies from single cells. Cell. 6(3):331-43. 1975. The separated normal human dermal fibroblasts were cultured in DMEM+10% fetal calf serum. The fibroblasts were cast onto a lower layer of proto-SoftSkin™ gel. A full-thickness dermal layer equivalent was obtained after contraction of a mixture of Collagen Type I and human normal fibroblasts. The separated normal human keratinocyte cell cultures were initiated using the 3T3 feeder-layer technique described in Rheinwald J. G., Green H.: Epidermal growth factor and the multiplication of cultured human epidermal keratinocytes. Nature 265:421-424 (1977). The separated normal human keratinocytes were seeded on a lattice on the top layer of a proto-SoftSkin™ gel and the culture was left for 7 days in submerged conditions at 37° C. in the presence of 5% carbon dioxide in MEM containing 10% fetal calf serum, allowing the cells to proliferate and form an epidermal layer. Then, the culture was raised upwards to air-liquid interface for an additional 7 days to grow reconstructed skin models (SoftSkin™).
The reconstructed skin samples derived from normal human dermal fibroblasts and normal human keratinocytes were subjected to CO2 laser treatment. […]
Medium supernatant was collected from the reconstructed skin samples. DKK-1 secretions were measured using a Luminex Assay (R&D Systems) in a panel following the manufacturer's guidelines. […]
as §2, with “analysis. All the data were statistically analyzed by Graph Pad Prism and presented as mean±standard deviation unless otherwise specified.” for “analysis.”

[1] = test system: laser wounded reconstructed skin (SoftSkin™); assay: H&E histology of laser wounded reconstructed skin (SoftSkin™); details: SoftSkin™ model after CO2 laser; 10 uL working solution topically every 24 hours, Day 0 to Day 2; sections Day 0, 2, 4; FIG. 2
Method: as §1

Filaggrin = Filaggrin immunofluorescence staining in laser wounded reconstructed skin; details: 3% in 3% propylene glycol, Day 2 SoftSkin™ after CO2 laser, vs laser alone, laser+vehicle and untreated control, FIG. 4
Method: as §1

| Compound | Ki67 expression (ratio of Ki67 positive cells/total cell number in basal layer) (Ki67) | Ki67 expression (ratio of Ki67 positive cells/total cell number in basal layer) (Ki67; listed as C-glycoside) | α-SMA expression (α-SMA) | α-SMA expression (α-SMA; listed as C-glycoside) | DKK-1 secretion/expression (DKK-1; FIG. 7) | DKK-1 secretion/expression (DKK-1; FIG. 7, listed as C-glycoside) | DKK-1 secretion/expression (DKK-1; FIG. 7, listed as Proxylane) | Keratinocyte invasion of laser dermal injury sites (H&E stained cross-sections) [1] | Filaggrin expression (relative fluorescence intensity, Image J) (Filaggrin) | Filaggrin expression (relative fluorescence intensity, Image J) (Filaggrin; listed as C-glycoside) |
| --- | --- | --- | --- | --- | --- | --- | --- | --- | --- | --- |
| CC(O)C[C@@H]1OC[C@@H](O)[C@H](O)[C@H]1O (stereo partly drawn) [Hydroxypropyl tetrahydropyrantriol, C13-D-xylopyranoside2-hydroxypropane] | increased Ki67 expression | significantly higher level | reduced α-SMA expression in a statistically significant manner | reduced the level of α-smooth muscle actin in laser wounded skin in a statistically significant manner | enhanced expression of DKR-1 | restored DKK-1 secretion to a level similar to control | enhancing the expression of DKK-1 | Keratinocytes invaded laser dermal injury sites | increased Filaggrin expression | significantly higher level |
| hyaluronic acid [reference compound] |  |  |  |  |  |  |  | not |  |  |
